Experiments:
Assay type in all cases: in vivo
[1] = tested on: large crabgrass (Digitaria sanguinalis); assay: Test A pre-/postemergence plant response
In short: (§1)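 Approximately ten days after concurrent pre- and postemergence spraying in a greenhouse, plants were compared with untreated controls and rated visually for injury, 0 = no effect to 100 = complete control. Preemergence spray was directed onto loam/sand soil; postemergence targeted 1–2 leaf seedlings.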

corn (Zea mays) = assay: Test A pre-/postemergence plant response
In short: as §1

[2] = tested on: giant foxtail (Setaria faberii); assay: Test A pre-/postemergence plant response
In short: as §1

[3] = tested on: velvetleaf (Abutilon theophrasti); assay: Test A pre-/postemergence plant response
In short: as §1

[4] = tested on: barnyardgrass (Echinochloa crus-galli); assay: Test A pre-/postemergence plant response
In short: as §1

[5] = tested on: wheat (Triticum aestivum); assay: Test A pre-/postemergence plant response
In short: as §1

[6] = tested on: canarygrass (Phalaris minor); assay: Test B postemergence plant response; details: for Canarygrass plant response rating (0 to 100 scale): 62 g ai/ha, 0 is no effect, 13 to 15 days
In short: (§2)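 Plants at the 1- to 4-leaf stage (2 to 18 cm tall), grown in pots of peat moss/vermiculite medium with wetting agent and starter nutrients, received postemergence applications of test chemicals. After 13 to 15 days in a greenhouse, injury was rated visually against untreated controls on a 0 (no effect) to 100 (complete control) scale.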

[7] = tested on: windgrass (Apera spica-venti); assay: Test B postemergence plant response; details: for Windgrass plant response rating (0 to 100 scale): 62 g ai/ha, 0 is no effect, 13 to 15 days
In short: as §2

[8] = tested on: winter barley (Hordeum vulgare); assay: Test B postemergence plant response; details: for Barley plant response rating (0 to 100 scale): 62 g ai/ha, 0 is no effect, 13 to 15 days
In short: as §2

[9] = tested on: chickweed (Stellaria media); assay: Test B postemergence plant response; details: for Chickweed plant response rating (0 to 100 scale): 62 g ai/ha, 0 is no effect, 13 to 15 days
In short: as §2

[10] = Postemergence, 125 g ai/ha, 0 to 100 scale where 0 is no effect and 100 is complete control
[11] = Postemergence, 500 g ai/ha, 0 to 100 scale, 0 = no effect, 100 = complete control, approx. ten days
[12] = Preemergence, 125 g ai/ha, 0 to 100 scale, 0 = no effect, 100 = complete control
[13] = Preemergence, 500 g ai/ha, visual injury, 0 to 100 scale (0 no effect, 100 complete control), approx. ten days
[14] = 31 g ai/ha, postemergence, scale 0 to 100, 0 is no effect, 100 is complete control
[15] = postemergence, 100 is complete control
[16] = Postemergence, 125 g ai/ha, visual rating after 13 to 15 days, scale 0 (no effect) to 100 (complete control)
[17] = Postemergence, 250 g ai/ha, scale 0 to 100 (0 no effect, 100 complete control)

Row | SMILES | Plant response rating, Crabgrass, Large [1, 10] | Plant response rating, Crabgrass, Large [1, 11] | Plant response rating, Crabgrass, Large [1, 12] | Plant response rating, Crabgrass, Large [1, 13] | Plant response rating, Corn (corn (Zea mays); [10]) | Plant response rating, Corn (corn (Zea mays); [11]) | Plant response rating, Corn (corn (Zea mays); [12]) | Plant response rating, Corn (corn (Zea mays); [13]) | Plant response rating, Foxtail, Giant [2, 10] | Plant response rating, Foxtail, Giant [2, 11] | Plant response rating, Foxtail, Giant [2, 12] | Plant response rating, Foxtail, Giant [2, 13] | Plant response rating, Velvetleaf [3, 10] | Plant response rating, Velvetleaf [3, 11] | Plant response rating, Velvetleaf [3, 12] | Plant response rating, Velvetleaf [3, 13] | Plant response rating, Barnyardgrass [4, 10] | Plant response rating, Barnyardgrass [4, 11] | Plant response rating, Barnyardgrass [4, 12] | Plant response rating, Barnyardgrass [4, 13] | other results
1 | CCCn1c(-c2ccsc2)ncc(C(=O)C2=C(O)CCCC2=O)c1=O [Compound 93] | 90 | 100 | 90 | 100 | 10 | 30 | 0 | 0 | 80 | 90 | 60 | 80 | 100 | 100 | 90 | 100 | 90 | 90 | 80 | 100 | Plant response rating, Wheat [5, 10]: 0; Plant response rating, Wheat [5, 11]: 0; Plant response rating, Wheat [5, 12]: 0; Plant response rating, Wheat [5, 13]: 0; Plant response rating, Canarygrass [6, 14]: 0; Canarygrass plant response rating (0 to 100 scale) [6, 15]: 0; Plant response rating, Canarygrass [6, 16]: 5; Plant response rating, Canarygrass [6, 17]: 10; Plant response rating, Windgrass [7, 14]: 5; Windgrass plant response rating (0 to 100 scale) [7, 15]: 10; Plant response rating, Windgrass [7, 17]: 55; Plant response rating, Barley [8, 14]: 0; Barley plant response rating (0 to 100 scale) [8, 15]: 0; Plant response rating, Barley [8, 16]: 5; Plant response rating, Barley [8, 17]: 5; Plant response rating, Chickweed [9, 14]: 80; Chickweed plant response rating (0 to 100 scale) [9, 15]: 80; Plant response rating, Chickweed [9, 16]: 95; Plant response rating, Chickweed [9, 17]: 98
2 | CCCCCCn1c(-c2ccccc2)ncc(C(=O)C2=C(O)CCCC2=O)c1=O [Compound 94] | 80 | 90 | 30 | 90 | 0 | 10 | 0 | 0 | 30 | 80 | 0 | 40 | 100 | 100 | 40 | 70 | 90 | 90 | 0 | 30 | Plant response rating, Wheat [5, 10]: 0; Plant response rating, Wheat [5, 11]: 0; Plant response rating, Wheat [5, 12]: 0; Plant response rating, Wheat [5, 13]: 0; Plant response rating, Canarygrass [6, 14]: 0; Canarygrass plant response rating (0 to 100 scale) [6, 15]: 5; Plant response rating, Canarygrass [6, 16]: 30; Plant response rating, Canarygrass [6, 17]: 35; Plant response rating, Windgrass [7, 14]: 0; Windgrass plant response rating (0 to 100 scale) [7, 15]: 40; Plant response rating, Windgrass [7, 17]: 50; Plant response rating, Barley [8, 14]: 0; Barley plant response rating (0 to 100 scale) [8, 15]: 0; Plant response rating, Barley [8, 16]: 5; Plant response rating, Barley [8, 17]: 5; Plant response rating, Chickweed [9, 14]: 95; Chickweed plant response rating (0 to 100 scale) [9, 15]: 100; Plant response rating, Chickweed [9, 16]: 100; Plant response rating, Chickweed [9, 17]: 100
3 | CCOCCn1c(-c2ccccc2)ncc(C(=O)C2=C(O)CCCC2=O)c1=O [Compound 96] | 90 | 100 | 100 | 100 | 0 | 20 | 0 | 10 | 70 | 90 | 50 | 80 | 100 | 100 | 100 | 100 | 90 | 90 | 90 | 100 | Plant response rating, Wheat [5, 10]: 0; Plant response rating, Wheat [5, 11]: 20; Plant response rating, Wheat [5, 12]: 0; Plant response rating, Wheat [5, 13]: 0; Plant response rating, Canarygrass [6, 14]: 0; Canarygrass plant response rating (0 to 100 scale) [6, 15]: 5; Plant response rating, Canarygrass [6, 16]: 30; Plant response rating, Canarygrass [6, 17]: 45; Plant response rating, Windgrass [7, 14]: 5; Windgrass plant response rating (0 to 100 scale) [7, 15]: 10; Plant response rating, Windgrass [7, 17]: 45; Plant response rating, Barley [8, 14]: 0; Barley plant response rating (0 to 100 scale) [8, 15]: 0; Plant response rating, Barley [8, 16]: 0; Plant response rating, Barley [8, 17]: 5; Plant response rating, Chickweed [9, 14]: 75; Chickweed plant response rating (0 to 100 scale) [9, 15]: 95; Plant response rating, Chickweed [9, 16]: 98; Plant response rating, Chickweed [9, 17]: 100

Source: US8952024B2, “Herbicidal pyrimidone derivatives” (E I du Pont de Nemours and Company, priority 2009, dated 2015)
